Data reported in PMC9852841, “Expanding the toolbox of metabolically stable lipid prodrug strategies” (Frontiers in Pharmacology, 2023).
Read-outs that look alike come from different tables or passages of the source.

How the values were obtained:
[1] = Cytotoxicity assay (cell viability, CellTiter 96 or resazurin); settings: human, HEK293T cells
[2] = Solubility observations (aqueous, HSA formulations, growth media); type: physicochemical; settings: observational, relative to TXL
[3] = test system: VSV pseudotype HIV-like viral particles; test: organism not typed; type: cell-based; settings: for IC50: read-out: HIV IC50
[4] = Metabolic stability in human liver microsomes; settings: for HLM t1/2 / HLM stability (in words): human liver microsomes; for HLM t1/2 / half-life at 3 µM: 3 μM prodrug, NADPH, 0-120 min; for half-life at 3 µM / microsomal CLint at 3 µM: human, microsomes; for half-life at 3 µM: pH 7.4, HLM t1/2, human liver microsomes; for microsomal CLint at 3 µM: pH 7.4
[5] = in vitro; settings: human, microsomes, pH 7.4
[6] = test system: VSV pseudotype HIV-like viral particles; design: method as in Pribut et al., 2021; settings: preliminary pseudoviral assay results; ref Pribut et al., 2021; cited from earlier work
[7] = dogs, single TAF dose, cited from earlier work
[8] = dogs, single TAF dose

| SMILES | IC50 ([3]; HEK-293T, 48 h) [µM] | HLM t1/2 [4] [min] | microsomal CLint at 3 µM [4] [µL/min/mg] | further results |
| --- | --- | --- | --- | --- |
| COCCOCCOP(=O)(O)CO[C@H](C)Cn1cnc2c(N)ncnc21.N [Compound 14, Ammonium [(1R)-2-(6-aminopurin-9-yl)-1-methyl-ethoxy]methyl-[2-(2-methoxyethoxy)ethoxy]phosphinate] | 21.4 |  |  | CC50 at 48 h [1]: > 100 µM; aqueous solubility (in words) [2]: observationally increased aqueous solubility; IC50 [3]: 19.4 µM |
| CCCCCCCCCCCCCCCCOCCCOP(=O)(O)CO[C@H](C)Cn1cnc2c(N)ncnc21 [TXL, tenofovir Exalidex, reference compound] | 0.018 | 41.6 |  | half-life at 3 µM [4]: 42 min; microsomal CLint [5]: 16.7 µL/min/mg |
| CCCCCCCCCCCCCCCCCCCCOP(=O)(O)COC(C)Cn1cnc2c(N)ncnc21 (centres unmarked) [arachidyl TFV] |  |  |  | IC50 [6]: 0.127 µM |
| C[C@H](Cn1cnc2c(N)ncnc21)OCP(=O)(O)OCCOCCCCCCCCCCCCCCC#CC(F)(F)F.N [Compound 33, Ammonium 2-((17,17,17-trifluoroheptadec-15-yn-1-yl)oxy)ethyl (R)-(((1-(6-amino-9h-purin-9-yl)propan-2-yl)oxy)methyl)phosphonate] | 0.0106 | >120 | < 5.78 |  |
| COCCOCCOCCOCCOP(=O)(O)CO[C@H](C)Cn1cnc2c(N)ncnc21.N [Compound 13, Ammonium [(1R)-2-(6-aminopurin-9-yl)-1-methyl-ethoxy]methyl-[2-[2-[2-(2-methoxyethoxy)ethoxy]ethoxy]ethoxy]phosphinate] | 26.7 |  |  | CC50 at 48 h [1]: > 100 µM; aqueous solubility (in words) [2]: observationally increased aqueous solubility; IC50 [3]: 23.4 µM |
| C[C@H](Cn1cnc2c(N)ncnc21)OCP(=O)(O)OCCOCCCCCCCCCCCCCC#CC(F)(F)F.N [Compound 32, Ammonium 2-((16,16,16-trifluorohexadec-14-yn-1-yl)oxy)ethyl (R)-(((1-(6-amino-9h-purin-9-yl)propan-2-yl)oxy)methyl)phosphonate] | 0.016 | >120 | < 5.78 |  |
| C[C@H](Cn1cnc2c(N)ncnc21)OCP(=O)(O)OCCOCCCCCCCCCCCCCCCCC(F)(F)F.N [Compound 37, Ammonium 2-((17,17,17-trifluoroheptadecyl)oxy)ethyl (R)-(((1-(6-amino-9h-purin-9-yl)propan-2-yl)oxy)methyl)phosphonate] | 0.0126 | >120 | < 5.78 |  |
| C[C@H](Cn1cnc2c(N)ncnc21)OCP(=O)(O)OCCOCCCCCCCCCCCCCCCC(F)(F)F.N [Compound 36, Ammonium 2-((16,16,16-trifluorohexadecyl)oxy)ethyl (R)-(((1-(6-amino-9H-purin-9-yl)propan-2-yl)oxy)methyl)phosphonate] | 0.0088 | >120 | < 5.78 |  |
| CC(C)OC(=O)[C@H](C)N[P@](=O)(CO[C@H](C)Cn1cnc2c(N)ncnc21)Oc1ccccc1 [TAF, tenofovir alafenamide] |  |  |  | fraction of dose extracted by the liver ([7]; ref Babusis et al., 2013): 65%; fraction of a single dose converted to plasma TFV ([7]; ref Lee et al., 2005): 17%; fraction of dose remaining available to access HIV-infected cells [8]: 18%; fraction of dose sequestered for toxic side effects [8]: 82% |
| CCCCCCCCCCCCCCCOCCCCOP(=O)(O)CO[C@H](C)Cn1cnc2c(N)ncnc21.N [Compound 19, Ammonium 4-pentadecoxybutoxy-[[(1R)-2-(6-aminopurin-9-yl)-1-methyl-ethoxy]methyl]phosphinate] | 0.03 | 48 | 14.4 |  |
| CCCCCCCCOCCCCCOCCCCCOP(=O)(O)CO[C@H](C)Cn1cnc2c(N)ncnc21.N [Compound 11, Ammonium 5-(5-octoxypentoxy)pentoxy-[[(1R)-2-(6-aminopurin-9-yl)-1-methyl-ethoxy]methyl]phosphinate] | 4.05 | 12 | 58.6 | HLM stability (in words) [4]: less stable in HLM relative to TXL; half-life at 3 µM [4]: 11.8 min; antiviral activity (in words) [3]: low μM range; decay of antiviral activity with inclusion of the second oxygen atom [3]: 78 fold |
| COCCOCCOCCOCCOCCOCCOP(=O)(O)CO[C@H](C)Cn1cnc2c(N)ncnc21.N [Compound 12, Ammonium 2,5,8,11,14,17-hexaoxanonadecan-19-yl (R)-(((1-(6-amino-9H-purin-9-yl)propan-2-yl)oxy)methyl)phosphonate] | 31.2 |  |  | CC50 at 48 h [1]: > 100 µM; aqueous solubility (in words) [2]: observationally increased aqueous solubility; IC50 [3]: 34.6 µM |
| C[C@H](Cn1cnc2c(N)ncnc21)OCP(=O)(O)OCCOCCCCCCCCCCC#Cc1ccc(S(F)(F)(F)(F)F)cc1.N [Compound 40, Ammonium [(1R)-2-(6-aminopurin-9-yl)-1-methyl-ethoxy]methyl-[2-[12-[4-(pentafluorosulfanyl)phenyl]dodec-11-ynoxy]ethoxy]phosphinate] | 0.0146 | >120 | < 5.78 |  |
| C[C@H](Cn1cnc2c(N)ncnc21)OCP(=O)(O)OCCOCCCCCCCCCCCCc1ccc(S(F)(F)(F)(F)F)cc1.N [Compound 42, Ammonium [(1R)-2-(6-aminopurin-9-yl)-1-methyl-ethoxy]methyl-[2-[12-[4-(pentafluorosulfanyl)phenyl]dodecoxy]ethoxy]phosphinate] | 0.0254 | >120 | < 5.78 |  |
| CCCCCCCCCCCCCCCCCCOCCOP(=O)(O)CO[C@H](C)Cn1cnc2c(N)ncnc21.N [Compound 21, Ammonium 2-octadecoxyethoxy-[[(1R)-2-(6-aminopurin-9-yl)-1-methyl-ethoxy]methyl]phosphinate] | 0.003 | 105 | 6.6 | HLM stability (in words) [4]: improved stability in HLM |
| CCCCOCCCCCOCCCCCOCCCOP(=O)(O)CO[C@H](C)Cn1cnc2c(N)ncnc21.N [Compound 10, Ammonium [(1R)-2-(6-aminopurin-9-yl)-1-methyl-ethoxy]methyl-[3-[5-(5-butoxypentoxy)pentoxy]propoxy]phosphinate] | > 32 |  |  | antiviral activity (in words) [3]: completely abrogated antiviral activity; loss of antiviral activity [3]: > 1,800 fold |
| CCCCCCCCCCCCCCOCCCCCOP(=O)(O)CO[C@H](C)Cn1cnc2c(N)ncnc21.N [Compound 20, Ammonium [(1R)-2-(6-aminopurin-9-yl)-1-methyl-ethoxy]methyl-(5-tetradecoxypentoxy)phosphinate] | 0.052 | 31 | 22.5 | half-life at 3 µM [4]: 30.9 min |
| CCCCCCCCCCCCCCCCCOCCOP(=O)(O)CO[C@H](C)Cn1cnc2c(N)ncnc21.N [Compound 18, Ammonium 2-heptadecoxyethoxy-[[(1R)-2-(6-aminopurin-9-yl)-1-methyl-ethoxy]methyl]phosphinate] | 0.003 | 35 | 19.8 | half-life at 3 µM [4]: 34.9 min; boost in potency relative to analogue 20 [3]: 17 fold |
